Measurements from PubChem BioAssay AID248 (DTP/NCI, 2004).
Toxic doses and inconclusive results are not listed. Cut-off read from the data, not from the text of the source: active = T/C of 150% or more; inactive = T/C below 125%.

Tested on: L1210 leukemia ip in BDF1 mice, survival T/C
Test: NCI In Vivo Anticancer Drug Screen. Data for tumor model L1210 Leukemia (intraperitoneal) in B6D2F1 (BDF1) mice
Settings: endpoint: mean survival time, higher = longer survival
Outline: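 Ratio derived from survival: compound-dosed mice over vehicle-dosed mice, all bearing a transplantable tumor.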

[1] = dose: 100.0 mg/kg/injection, schedule: Q01DX009 (ip), vehicle: saline with Tween-80
[2] = dose: 100.0 mg/kg/injection, schedule: Q04DX003 (ip), vehicle: saline with Tween-80
[3] = dose: 200.0 mg/kg/injection, schedule: Q01DX009 (ip), vehicle: saline with Tween-80
[4] = dose: 200.0 mg/kg/injection, schedule: Q04DX003 (ip), vehicle: saline with Tween-80
[5] = dose: 400.0 mg/kg/injection, schedule: Q04DX003 (ip), vehicle: saline with Tween-80
[6] = dose: 100.0 mg/kg/injection, schedule: Q04DX002 (ip), vehicle: saline
[7] = dose: 200.0 mg/kg/injection, schedule: Q04DX002 (ip), vehicle: saline
[8] = dose: 400.0 mg/kg/injection, schedule: Q04DX002 (ip), vehicle: saline
[9] = dose: 100.0 mg/kg/injection, schedule: Q04DX002 (ip), vehicle: saline with Tween-80
[10] = dose: 25.0 mg/kg/injection, schedule: Q04DX003 (ip), vehicle: saline
[11] = dose: 50.0 mg/kg/injection, schedule: Q04DX003 (ip), vehicle: saline
[12] = dose: 50.0 mg/kg/injection, schedule: Q01DX001 (ip), vehicle: saline
[13] = dose: 100.0 mg/kg/injection, schedule: Q01DX001 (ip), vehicle: saline
[14] = dose: 200.0 mg/kg/injection, schedule: Q01DX001 (ip), vehicle: saline
[15] = dose: 400.0 mg/kg/injection, schedule: Q01DX001 (ip), vehicle: saline
[16] = dose: 100.0 mg/kg/injection, schedule: Q04DX003 (ip), vehicle: Klucel (hydroxypropylcellulose) (HPC)
[17] = dose: 200.0 mg/kg/injection, schedule: Q04DX003 (ip), vehicle: Klucel (hydroxypropylcellulose) (HPC)
[18] = dose: 400.0 mg/kg/injection, schedule: Q04DX003 (ip), vehicle: Klucel (hydroxypropylcellulose) (HPC)
[19] = dose: 100.0 mg/kg/injection, schedule: Q01DX009 (ip), vehicle: Klucel (hydroxypropylcellulose) (HPC)
[20] = dose: 200.0 mg/kg/injection, schedule: Q01DX009 (ip), vehicle: Klucel (hydroxypropylcellulose) (HPC)
[21] = dose: 400.0 mg/kg/injection, schedule: Q01DX009 (ip), vehicle: Klucel (hydroxypropylcellulose) (HPC)

Measured: T/C

Cc1ccc(Cl)cc1NS(=O)(=O)c1ccc2ccccc2c1
inactive: [1] 106 % of control | [2] 96 % of control | [3] 96 % of control | [4] 104 % of control | dose: 400.0 mg/kg/injection, schedule: Q01DX009 (ip), vehicle: saline with Tween-80 112 % of control | [5] 91 % of control

CN(C)C1CS(=O)(=O)CC1[N+](C)(C)C (configuration not stated)
inactive: [6] 118 % of control | [7] 89 % of control | [8] 110 % of control

CNC(=O)Oc1ccc2c(C)cc(=O)oc2c1
inactive: [6] 94 % of control | [7] 105 % of control

CC(=O)OCCc1ccc([N+](=O)[O-])cc1
inactive: [9] 97 % of control | dose: 200.0 mg/kg/injection, schedule: Q04DX002 (ip), vehicle: saline with Tween-80 93 % of control | dose: 400.0 mg/kg/injection, schedule: Q04DX002 (ip), vehicle: saline with Tween-80 97 % of control

CCOC(=O)c1cc(N/N=C2/CCCNC2=O)c[nH]1
inactive: dose: 100.0 mg/kg/injection, schedule: Q01DX001 (ip), vehicle: carboxymethylcellulose (CMC) 99 % of control | dose: 200.0 mg/kg/injection, schedule: Q01DX001 (ip), vehicle: carboxymethylcellulose (CMC) 103 % of control | dose: 400.0 mg/kg/injection, schedule: Q01DX001 (ip), vehicle: carboxymethylcellulose (CMC) 94 % of control

CCNC(C)(C)C(SSS)c1ccco1 (configuration not stated)
inactive: dose: 12.5 mg/kg/injection, schedule: Q01DX009 (ip), vehicle: gum acacia 90 % of control | dose: 25.0 mg/kg/injection, schedule: Q01DX009 (ip), vehicle: gum acacia 88 % of control | dose: 50.0 mg/kg/injection, schedule: Q01DX009 (ip), vehicle: gum acacia 90 % of control | dose: 100.0 mg/kg/injection, schedule: Q04DX003 (ip), vehicle: gum acacia 95 % of control | dose: 200.0 mg/kg/injection, schedule: Q04DX003 (ip), vehicle: gum acacia 95 % of control | dose: 400.0 mg/kg/injection, schedule: Q04DX003 (ip), vehicle: gum acacia 107 % of control

c1cc2c(c(OCC3=NCCN3)c1)CCCC2
inactive: [6] 94 % of control

CN(C)CCCNc1c2ccccc2nc2cccc([N+](=O)[O-])c12
inactive: dose: 0.2 mg/kg/injection, schedule: Q04DX003 (ip), vehicle: saline 100 % of control | dose: 0.3 mg/kg/injection, schedule: Q04DX003 (ip), vehicle: saline 94 % of control | dose: 0.5 mg/kg/injection, schedule: Q04DX003 (ip), vehicle: saline 108 % of control

C[N+](C)(C)C1CS(=O)C1 (configuration not stated)
inactive: dose: 12.5 mg/kg/injection, schedule: Q04DX003 (ip), vehicle: saline 96 % of control | [10] 112 % of control | [11] 87 % of control

O=C1/C(=C\c2ccccc2)Sc2cc[nH]c21
inactive: dose: 100.0 mg/kg/injection, schedule: Q01DX001 (ip), vehicle: Klucel (hydroxypropylcellulose) (HPC) 96 % of control | dose: 200.0 mg/kg/injection, schedule: Q01DX001 (ip), vehicle: Klucel (hydroxypropylcellulose) (HPC) 105 % of control | dose: 400.0 mg/kg/injection, schedule: Q01DX001 (ip), vehicle: Klucel (hydroxypropylcellulose) (HPC) 96 % of control

CCSC1OC(C(COC(C)=O)OC(C)=O)C(OC(C)=O)C1NC(C)=O (configuration not stated)
inactive: [12] 103 % of control | [13] 110 % of control | [14] 97 % of control | [15] 100 % of control

C[N+]1(CCO)CC[N+](C)(CCO)CC1 (configuration not stated)
inactive: [6] 90 % of control | [7] 104 % of control | [8] 101 % of control

C[n+]1ccc(/C=C/c2ccc(O)c3ccccc23)c2ccccc21
inactive: dose: 75.0 mg/kg/injection, schedule: Q01DX001 (ip), vehicle: carboxymethylcellulose (CMC) 100 % of control | dose: 150.0 mg/kg/injection, schedule: Q01DX001 (ip), vehicle: carboxymethylcellulose (CMC) 100 % of control | dose: 300.0 mg/kg/injection, schedule: Q01DX001 (ip), vehicle: carboxymethylcellulose (CMC) 115 % of control

CN(C)N=Nc1ccc(Cl)cc1C(N)=O
inactive: [1] 104 % of control | [2] 105 % of control | [3] 110 % of control | [4] 102 % of control | [5] 100 % of control

CC(C)NC(=O)c1ccc(CNN(C)C)cc1
inactive: [10] 114 % of control | [11] 104 % of control | dose: 100.0 mg/kg/injection, schedule: Q04DX003 (ip), vehicle: saline 112 % of control | dose: 200.0 mg/kg/injection, schedule: Q04DX003 (ip), vehicle: saline 104 % of control | dose: 400.0 mg/kg/injection, schedule: Q04DX003 (ip), vehicle: saline 111 % of control

NNC(=S)Nc1ccccc1
inactive: dose: 5.0 mg/kg/injection, schedule: Q01DX009 (ip), vehicle: saline with Tween-80 98 % of control

CCC(=N\O)/C(C)=N/O
inactive: [16] 103 % of control | [17] 103 % of control | [18] 100 % of control

CCc1cc2oc(C)c(C)c2c(N=Nc2ccc(Cl)cc2)c1O
inactive: dose: 100.0 mg/kg/injection, schedule: Q04DX002 (ip), vehicle: Klucel (hydroxypropylcellulose) (HPC) 99 % of control | dose: 200.0 mg/kg/injection, schedule: Q04DX002 (ip), vehicle: Klucel (hydroxypropylcellulose) (HPC) 96 % of control | dose: 400.0 mg/kg/injection, schedule: Q04DX002 (ip), vehicle: Klucel (hydroxypropylcellulose) (HPC) 99 % of control

COC(=O)C1C2C(C)CC3(CC12C)OCCO3 (configuration not stated)
inactive: dose: 100.0 mg/kg/injection, schedule: Q01DX009 (ip), vehicle: saline sonified 92 % of control | [16] 102 % of control | dose: 200.0 mg/kg/injection, schedule: Q01DX009 (ip), vehicle: saline sonified 97 % of control | [17] 93 % of control | dose: 400.0 mg/kg/injection, schedule: Q01DX009 (ip), vehicle: saline sonified 92 % of control | [18] 86 % of control

COc1cc(/C=C2\CCOC2=O)cc(/C=C2\CCOC2=O)c1O
inactive: [9] 89 % of control

C=CSCCCCCCCC
inactive: dose: 100.0 mg/kg/injection, schedule: Q04DX003 (ip), vehicle: other 103 % of control | dose: 200.0 mg/kg/injection, schedule: Q04DX003 (ip), vehicle: other 97 % of control | dose: 400.0 mg/kg/injection, schedule: Q04DX003 (ip), vehicle: other 97 % of control

Nc1n[nH]c(C(=O)O)n1
inactive: [19] 98 % of control | [16] 107 % of control | [20] 107 % of control | [17] 93 % of control | [21] 105 % of control | [18] 93 % of control

CC(C)=NNC(=O)COCC(=O)NN=C(C)C
inactive: [19] 97 % of control | [20] 112 % of control | [21] 109 % of control

COc1ccc2c(c1)C(CC(=O)O)=CC2
inactive: [12] 100 % of control | [13] 96 % of control | [14] 105 % of control | [15] 107 % of control

CCCCCCCCCCCCN1CCCC(O)C1 (configuration not stated)
inactive: [2] 93 % of control | [4] 88 % of control

CCN(CC)CC[n+]1ccccc1
inactive: [6] 93 % of control | [7] 100 % of control
